Assay results: patent US20160257997A1, “METHODS FOR WHOLE-CELL ANALYSIS OF GRAM-POSITIVE BACTERIA” (AdvanDx, Inc., priority 2009, published 2016)
{Biotin} = biotin label at the PNA N-terminus, attached through the O linker (8-amino-3,6-dioxaoctanoic acid); {PacBlue} = Pacific Blue dye label at the PNA N-terminus, attached through the O linker; {TAMRA} = TAMRA (TAM) fluorescent label at the PNA N-terminus

Assays:
MecA = experiment: PNA FISH with tyramide signal amplification (Example 4); assay type: cell-based, S. aureus; conditions: MRSA 33591, oxacillin-induced; 500 nM total; streptavidin-HRP, AlexaFluor 594-labeled tyramide; FIG. 4
Method: Cell fixation and permeabilization was also performed as described in Example 1 except that prior to hybridization the slides were treated at 80° C. for 5 minutes with 75 μL of TE buffer (Tris-HCl 100 mM, EDTA, 10 mM, pH 8.0). For hybridization, 25 μL of HB** containing five biotin-labeled PNA probes (Probes 11, 12, 13, 14 and 15 (concentration of each probe was 100 nM for a total concentration of 500 nM) was applied on one slide. Another slide was probed with one biotin-labeled, C. albicans—specific rRNA-directed probe (probe 10, concentration 500 nM) in control experiment. Hybridization and washing were performed as described in Example 1. Slides were then processed with reagents commercially available from Molecular Probes (TSA Kit #25, Eugene, Oreg.) according to manufacturer's protocol. Specifically, slide-deposited cells were first incubated 30 min with 0.075 mL of Blocking Buffer (BB) then 30 min with 0.1 mL of streptavidin-HRP diluted in BB. After washing (3×5 min wash) with PBS-Tween, the cells were incubated 10 min with 0.075 mL of AlexaFluor 594-labeled tyramide solution and washed (3×5 min wash) again. A drop of MM and cover slip was then applied on air dried slides and the cells were examined by FM. […]

rRNA [1] = experiment: PNA FISH with rRNA-directed probes on S. aureus cells (Examples 2-3); assay type: cell-based
Description: Some (but not all) of the visible colonies in the slides are surrounded by a circle (slide A) or a square (Slide B). This should assist in analysis of the slides where black and white copies of the Figures are provided in lieu of color copies. In Image A-1 and A-2, the same colonies are encircled to simplify the comparison. The conditions for each of the slides examined in FIG. 2, are as follows: • A-1) MRSA 43300, Dual band filter • B-1) MSSA 29213, Dual band filter • A-2) MRSA 43300, FITC filter • B-2) MSSA 29213, FITC filter

rRNA [2] = experiment: PNA FISH with rRNA-directed probes on S. epidermidis cells (Example 3); conditions: MRSE 51625 in mixture with MRSA 43300
Method: In this example a mixture of MRSA 43300 and MRSE 51625 was prepared and examined using three fluorescent filters as described below. The growth and oxacillin induction of S. aureus cells was performed as described in Example 1. […] S. epidermidis was grown essentially as described for S. aureus in Example 1. Cell fixation and permeabilization of both MRSA 43300 and MRSE 51625 was performed as described in Example 1.
The remainder of the procedure was performed as described in Example 1. These images are of the same section of the slide. In each case, only the fluorescence filter was changed.

MecA mRNA = experiment: PNA FISH of MecA mRNA in permeabilized S. aureus (Examples 1-3); assay type: cell-based; conditions: MRSA 43300, oxacillin-induced; FIG. 1 Slides B-D; Probes 1-5 794 nM combined, Probe 2 750 nM, Probe 6 750 nM

For “AGAGAGCAGCATCCA (all peptide nucleic acid (PNA), 5' {Biotin}; peptide nucleic acid FISH probe, chemically synthesized) [Probe 10, Biotin-labeled C. albicans-specific rRNA-directed PNA probe, control]”, the “fluorescent staining of bacteria after tyramide signal amplification” value (MecA) was “absence of visible bacteria”.
In the case of “TAM-GCTTCTCGTCCGTTC (all peptide nucleic acid (PNA), 5' {TAMRA}; peptide nucleic acid FISH probe; listed as Staphylococcus aureus) [Probe 8]”, the “fluorescent staining of bacteria (dual band filter)” value (rRNA [1]; MRSA 43300 and MSSA 29213, 500 nM, FIG. 2 Slides A-1 and B-1) is reported as “Red fluorescent stained bacteria”, the “fluorescent staining of bacteria (dual band filter)” value (rRNA [1]; MRSA 43300 in mixture with MRSE 51625, FIG. 3 Image A) is reported as “red fluorescence” and the “fluorescent staining of bacteria (dual band filter)” value (rRNA [2]; FIG. 3 Image A) is reported as “no TAMRA signal”.
With “TCAATGAGCAAAGGT (all peptide nucleic acid (PNA); fluorescein label, position not given here; listed as Escherichia coli) [Probe 6, Flu-labeled E. coli specific rRNA-directed PNA probe, control]” the “fluorescent staining of bacteria (FITC filter)” value (MecA mRNA) was “No signal was observed”.
With “TCCTCGTCTGTTCGC (all peptide nucleic acid (PNA), 5' {PacBlue}; peptide nucleic acid FISH probe, chemically synthesized; listed as Staphylococcus epidermidis) [Probe 9]” the “fluorescent staining of bacteria (DAPI filter)” value (rRNA [2]; 500 nM, FIG. 3 Image B) was “Blue stained MRSE bacteria are visible”.
